The record followed here is ChEMBL document CHEMBL2074522, “Role of P-glycoprotein-mediated secretion in absorptive drug permeability: An approach using passive membrane permeability and affinity to P-glycoprotein” (J Pharm Sci, 1999).

For this assay, the target named is ATP-dependent translocase ABCB1 (Homo sapiens, UniProt P08183). Nature of the assay: TP_TRANSPORTER: inhibition of Verapamil binding in membranes from Vinblastine-induced Caco-2 cells. The assay is classed as functional, cell membranes, Membrane.
Chain of ATP-dependent translocase ABCB1 (P08183 whole entry): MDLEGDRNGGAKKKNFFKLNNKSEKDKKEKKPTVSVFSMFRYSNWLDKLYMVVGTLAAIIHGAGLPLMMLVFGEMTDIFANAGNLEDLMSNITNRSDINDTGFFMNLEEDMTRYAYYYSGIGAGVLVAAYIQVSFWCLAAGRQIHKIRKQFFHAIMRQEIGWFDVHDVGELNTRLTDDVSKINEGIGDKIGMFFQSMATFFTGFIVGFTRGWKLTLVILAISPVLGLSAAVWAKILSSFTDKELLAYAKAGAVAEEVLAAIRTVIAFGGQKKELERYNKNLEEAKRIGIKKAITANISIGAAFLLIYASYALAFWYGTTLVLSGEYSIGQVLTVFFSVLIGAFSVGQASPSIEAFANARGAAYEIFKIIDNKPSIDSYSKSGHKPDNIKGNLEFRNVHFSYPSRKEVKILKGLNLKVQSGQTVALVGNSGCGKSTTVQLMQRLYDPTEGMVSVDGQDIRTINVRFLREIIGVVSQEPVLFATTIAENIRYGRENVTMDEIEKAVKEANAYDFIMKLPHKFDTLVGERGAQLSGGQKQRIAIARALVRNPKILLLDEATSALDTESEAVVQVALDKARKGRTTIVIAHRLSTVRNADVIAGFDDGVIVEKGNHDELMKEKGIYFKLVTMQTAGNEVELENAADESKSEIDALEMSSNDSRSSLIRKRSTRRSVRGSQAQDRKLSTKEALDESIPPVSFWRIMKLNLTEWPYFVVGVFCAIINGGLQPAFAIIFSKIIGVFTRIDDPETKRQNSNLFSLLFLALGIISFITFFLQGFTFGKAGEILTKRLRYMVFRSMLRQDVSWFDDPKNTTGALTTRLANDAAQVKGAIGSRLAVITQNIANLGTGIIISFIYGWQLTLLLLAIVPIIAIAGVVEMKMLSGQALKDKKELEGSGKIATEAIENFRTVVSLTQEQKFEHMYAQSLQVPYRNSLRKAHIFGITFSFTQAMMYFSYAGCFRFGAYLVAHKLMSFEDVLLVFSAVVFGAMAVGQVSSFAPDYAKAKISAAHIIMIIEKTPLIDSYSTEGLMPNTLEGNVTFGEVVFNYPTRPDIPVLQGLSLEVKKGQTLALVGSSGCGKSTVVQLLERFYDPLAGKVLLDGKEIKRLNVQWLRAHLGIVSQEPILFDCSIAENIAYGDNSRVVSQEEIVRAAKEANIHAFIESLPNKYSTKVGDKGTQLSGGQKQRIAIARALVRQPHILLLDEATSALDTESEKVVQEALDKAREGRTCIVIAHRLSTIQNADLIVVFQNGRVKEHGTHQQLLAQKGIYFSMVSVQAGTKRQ

On to `CC(C)NCC(O)COc1ccc(CCNC(=O)NC(C)C)cc1` (configuration not stated) [PAFENOLOL], for which the Ki was 5.5 µM (read-out: Ki1) and 3200 µM (read-out: Ki2).
